In patent US20110288103A1, “COMPOUNDS, COMPOSITIONS, AND METHODS COMPRISING 1,3,4-OXADIAZOLE DERIVATIVES” (Institute for OneWorld Health, priority 2010, published 2011):
Values joined by “and” are separate entries in the source; they are usually repeats but may differ in a detail not shown here. Equal entries are not always repeated. “Also recorded” adds a separate entry of the source.

Tests used:
[1] = test system: intestinal loops injected with cholera toxin (CTX); parameters: species or system mice (CD1 strain); conditions: mouse, in vivo
[2] = test system: calcium-activated chloride channels (CaCC); assay: Whole cell patch clamp recording of CaCC-mediated Cl- currents in JME/CF15 cells; format: cell-based
Protocol: Effect on calcium-activated chloride channels (CaCC) was investigated in JME/CF15 cells (see Jefferson et al. “Expression of normal and cystic fibrosis phenotypes by continuous airway epithelial cell lines” Am J. Physiol. (1990) December; 259 (6 Pt 1): L496-505). […] Test compound was Compound 10 ('915/2 in FIGS. 1 and 2) and positive control for CaCC was flufenamic acid (FFA).
JME/CF15 cells were prepared for whole cell patch clamp recordings following standard protocols (as described in Fischer et al. “Basolateral Cl channels in primary airway epithelial cultures” Am J Physiol Lung Cell Mol Physiol. (2007) 292:L1432-L1443, which is incorporated herein by reference in its entirety) while incubated in a bath solution as follows (mM): 140 HCl, 158 N-methyl-D-glucamine (NMDG), 2 CaCl2, 1 MgCl2, 12.5 Hepes, 10 glucose, pH 7.4. To selectively activate calcium-activated chloride channels (CaCC), the pipette solution consisted of (in mM) HCl, 160 N-methyl-D-glucamine (NMDG), 1 MgCl2, 5 Hepes, 1 glucose, 5 MgATP, pH 7.4.
(§1) Conventional whole cell patch clamp recordings were made. Effects of compounds were tested in 2 runs at 1 and 10 μM, respectively, on CaCC. To activate CaCC mediated Cl^− conductances, the pipette solution contained 500 nM CaCl2 without EGTA (in order to allow for agonist induced regulation of CaCC) or a mixture of 1.8 mM CaCl2 and 2 mM EGTA resulting in a free concentration of calcium of 500 nM to maintain a stable intracellular calcium concentration.
(§2) CaCC-mediated Cl^− currents were measured with a pipette solution that contained ˜500 nM free Ca to activate CaCC. […] This is likely a Ca-activated K^+ conductance because i) it generates a large outward current (which rules out a Cl^− conductance), and ii) it is transient (likely because intracellular K^+ is exhausted).

[3] = test system: Ca-activated K+ conductance; assay: Whole cell patch clamp in JME/CF15 cells: additional (K+) conductance; format: cell-based
Protocol: as §1, §2
The experimental conditions were not set up to measure a K^+ conductance, i.e., there is no K^+ in the employed solutions, and the measured currents are dependent on the residual K^+ found in cells. […] In an epithelial setting, concurrent block of CaCC and a K^+ conductance may result in weaker blocker efficiency or even in stimulation of secretion.

SMILES	% Inhibition [1] [%^ψ]	Inhibition of CTX-induced fluid secretion (statistical significance) [1]	Block of CaCC-mediated Cl- currents ([2]; intracellular calcium stably buffered (with EGTA), ~500 nM free Ca, compound added to bath, runs at 1 and 10 μM, FIG. 1)	Block of CaCC-mediated (remaining) chloride current ([2]; intracellular calcium unbuffered (low EGTA), ~500 nM free Ca, 10 μM, FIG. 2)	Activation of a K+ conductance ([3]; Ca-buffered solutions)	Activation of an additional conductance (likely Ca-activated K+ conductance) ([3]; intracellular calcium unbuffered (low EGTA), 10 μM, FIG. 2)	Mean net fluid secretion (loop weight/loop length) [1]	Block of remaining chloride current after compound 10 ([2]; intracellular calcium unbuffered, 100 μM FFA added after compound 10, FIG. 2)
O=C(NCc1ccc(Oc2ccccc2)cc1)c1nc(-c2cc(Br)c(O)c(Br)c2)no1 [BF000710032, 3-(3,5-dibromo-4-hydroxyphenyl)-N-(4-phenoxybenzyl)-1,2,4-oxadiazole-5-carboxamide, reference compound]	62.69	statistically significant inhibition						
CN(Cc1ccc(Cl)c(Cl)c1)C(=O)c1nnc(-c2cccc(NS(=O)(=O)C(F)(F)F)c2)o1 [Compound 10, N-(3,4-dichlorobenzyl)-N-methyl-5-(3-(trifluoromethylsulfonamido)phenyl)-1,3,4-oxadiazole-2-carboxamide]		statistically significant inhibition	blocking; also recorded: blocked currents	blocking; also recorded: eventually well blocked	not in Ca-buffered	transiently activated an additional conductance; also recorded: activation of a Ca-activated K^+ conductance	0.04996 g/cm and 0.04015 g/cm and 0.07645 g/cm	
O=C(O)c1ccccc1Nc1cccc(C(F)(F)F)c1 [FFA, flufenamic acid, reference compound]								blocks only slightly more
